Calls of active or inactive are those of the source.

Assay [1] addresses T1, Corticotropin-releasing factor receptor 2/Corticotropin-releasing factor-binding protein (Homo sapiens, UniProt P24387+Q13324).
T1 sequence (Q13324 whole entry): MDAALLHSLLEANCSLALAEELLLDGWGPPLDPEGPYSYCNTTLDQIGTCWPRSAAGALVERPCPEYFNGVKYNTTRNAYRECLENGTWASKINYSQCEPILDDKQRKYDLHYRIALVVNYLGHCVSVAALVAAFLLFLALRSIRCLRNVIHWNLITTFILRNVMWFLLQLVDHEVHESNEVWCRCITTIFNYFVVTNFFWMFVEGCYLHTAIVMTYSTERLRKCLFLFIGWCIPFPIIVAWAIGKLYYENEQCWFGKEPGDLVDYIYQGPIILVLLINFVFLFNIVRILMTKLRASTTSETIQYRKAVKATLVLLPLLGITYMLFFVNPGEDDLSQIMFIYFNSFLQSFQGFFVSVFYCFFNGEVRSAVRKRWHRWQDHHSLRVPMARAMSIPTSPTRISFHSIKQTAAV
T1 sequence (P24387 whole entry): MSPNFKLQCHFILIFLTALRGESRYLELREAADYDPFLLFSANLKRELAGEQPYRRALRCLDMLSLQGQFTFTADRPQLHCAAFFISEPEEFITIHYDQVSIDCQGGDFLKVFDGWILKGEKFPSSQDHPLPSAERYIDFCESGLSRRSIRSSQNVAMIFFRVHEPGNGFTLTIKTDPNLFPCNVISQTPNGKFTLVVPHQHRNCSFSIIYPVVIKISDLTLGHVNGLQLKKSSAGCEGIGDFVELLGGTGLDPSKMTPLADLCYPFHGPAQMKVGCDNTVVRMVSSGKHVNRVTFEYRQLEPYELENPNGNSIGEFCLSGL
The assay is described as follows: Dose Response confirmation of uHTS hits for small molecule antagonists of the CRF-binding protein and CRF-R2 receptor complex. Format: functional. As to conditions: read-out: IC50_Mean.

Assay [2] deals with T1, Corticotropin-releasing factor receptor 2/Corticotropin-releasing factor-binding protein. Nature of the assay: activators of CRF receptor 2 with binding protein – uHTS hits, confirmation (AID 602473). The format is functional. As to conditions: read-out: EC50_Mean.
Assay [3] can be described thus: CRF-BP/CRF-R2 complex antagonists, dose response, cell-based, uHTS hits, 384-well (AID 651639). Format: functional, Homo sapiens. As to conditions: read-out: IC50_Mean.
Assay [4] deals with T2, Carboxy-terminal domain RNA polymerase II polypeptide A small phosphatase 1 (Homo sapiens, UniProt Q9GZU7).
T2 sequence (Q9GZU7 whole entry): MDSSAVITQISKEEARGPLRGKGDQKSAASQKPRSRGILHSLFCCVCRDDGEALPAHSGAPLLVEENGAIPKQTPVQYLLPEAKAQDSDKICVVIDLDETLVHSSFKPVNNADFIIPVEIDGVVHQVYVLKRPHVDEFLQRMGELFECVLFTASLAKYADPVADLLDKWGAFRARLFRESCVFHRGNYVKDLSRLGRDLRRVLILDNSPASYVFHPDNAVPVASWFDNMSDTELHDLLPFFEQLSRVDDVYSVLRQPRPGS
The assay is described as follows: inhibitors of CTDSP1, concentration-response testing, biochemical assay, absorbance-based, actives from ultra-high-throughput screening (AID 540297). Format: functional.

Assay [5] has as its system BJ. The assay is described as follows: cytotoxicity toward BJ-TERT fibroblasts, dose response, cell-based, RAS-independent, luminescence (AID 1933). The format is functional. As to conditions: Homo sapiens.
The test system of assay [6] is BJ. Nature of the assay: cells. The format is functional, cell-based. Particulars: Homo sapiens.
The test system of assay [7] is BJ. The assay is described as follows: cytotoxicity toward BJ-TERT-LT-ST fibroblasts, dose response, cell-based, RAS-independent, luminescence (AID 1935).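 Further: BJ fibroblasts immortalized with TERT plus LT and ST oncogenes.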 Format: functional. As to conditions: Homo sapiens.
Assay [8] can be described thus: cytotoxicity toward DRD oncogenic fibroblasts, dose response, cell-based, non-viral oncogenic, luminescence (AID 1934). The format is functional. Particulars: Homo sapiens.
In assay [9] the target is T3, Microphthalmia-associated transcription factor (Homo sapiens, UniProt O75030).
T3 sequence (O75030 whole entry): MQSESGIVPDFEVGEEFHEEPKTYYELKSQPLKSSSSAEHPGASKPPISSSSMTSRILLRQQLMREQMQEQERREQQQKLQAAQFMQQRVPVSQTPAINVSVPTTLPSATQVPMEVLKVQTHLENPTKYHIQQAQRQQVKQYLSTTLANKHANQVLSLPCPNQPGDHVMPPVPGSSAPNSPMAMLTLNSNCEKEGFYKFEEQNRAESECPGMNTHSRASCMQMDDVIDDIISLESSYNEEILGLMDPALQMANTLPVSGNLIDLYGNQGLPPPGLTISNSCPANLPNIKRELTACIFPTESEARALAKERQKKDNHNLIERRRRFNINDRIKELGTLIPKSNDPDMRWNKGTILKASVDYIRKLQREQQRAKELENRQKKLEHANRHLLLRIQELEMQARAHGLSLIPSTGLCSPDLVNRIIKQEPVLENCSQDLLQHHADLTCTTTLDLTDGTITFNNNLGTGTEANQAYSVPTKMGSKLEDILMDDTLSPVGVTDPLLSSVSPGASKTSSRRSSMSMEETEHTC
Nature of the assay: TRPM1 promoter luciferase signal decrease, dose response, MITF inhibitor project, cell-based, SK-MEL-5, cherry-picked, set 3 (AID 493073).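 Further: SK-MEL-5 melanoma cells with luciferase driven by the MITF target TRPM1 promoter.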 The format is functional.

The target in assay [10] is T4, Replicative DNA helicase DnaB (Mycobacterium tuberculosis, UniProt P9WMR3).
T4 sequence (P9WMR3 whole entry): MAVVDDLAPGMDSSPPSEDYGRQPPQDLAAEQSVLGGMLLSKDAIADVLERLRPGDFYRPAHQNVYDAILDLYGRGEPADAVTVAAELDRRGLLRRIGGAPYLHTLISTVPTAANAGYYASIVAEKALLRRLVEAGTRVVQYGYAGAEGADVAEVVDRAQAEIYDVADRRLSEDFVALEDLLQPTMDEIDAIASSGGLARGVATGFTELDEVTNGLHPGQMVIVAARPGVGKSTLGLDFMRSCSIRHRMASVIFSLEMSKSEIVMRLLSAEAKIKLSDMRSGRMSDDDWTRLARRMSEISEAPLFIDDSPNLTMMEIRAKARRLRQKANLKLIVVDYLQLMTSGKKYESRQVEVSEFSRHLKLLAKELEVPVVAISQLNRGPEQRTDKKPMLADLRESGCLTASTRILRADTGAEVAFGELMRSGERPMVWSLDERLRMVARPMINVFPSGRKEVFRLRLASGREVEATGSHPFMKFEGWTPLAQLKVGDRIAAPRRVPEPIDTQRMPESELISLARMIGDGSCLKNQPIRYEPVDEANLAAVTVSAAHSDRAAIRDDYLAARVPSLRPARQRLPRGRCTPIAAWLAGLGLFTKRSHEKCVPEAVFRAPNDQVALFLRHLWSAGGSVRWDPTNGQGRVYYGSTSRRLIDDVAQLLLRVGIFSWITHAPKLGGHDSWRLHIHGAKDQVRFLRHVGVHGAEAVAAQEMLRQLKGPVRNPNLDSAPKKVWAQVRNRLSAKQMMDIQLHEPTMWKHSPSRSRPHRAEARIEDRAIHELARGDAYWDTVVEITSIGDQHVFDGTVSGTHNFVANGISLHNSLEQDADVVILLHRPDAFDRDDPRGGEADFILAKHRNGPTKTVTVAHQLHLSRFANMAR
The assay is described as follows: DnaB intein splicing inhibitors, dose response, biochemical, cell-free fluorescence (AID 449749). The format is functional.

Assay [11] deals with T5, Protein RecA (Mycobacterium tuberculosis, UniProt P9WHJ3).
T5 sequence (P9WHJ3 whole entry): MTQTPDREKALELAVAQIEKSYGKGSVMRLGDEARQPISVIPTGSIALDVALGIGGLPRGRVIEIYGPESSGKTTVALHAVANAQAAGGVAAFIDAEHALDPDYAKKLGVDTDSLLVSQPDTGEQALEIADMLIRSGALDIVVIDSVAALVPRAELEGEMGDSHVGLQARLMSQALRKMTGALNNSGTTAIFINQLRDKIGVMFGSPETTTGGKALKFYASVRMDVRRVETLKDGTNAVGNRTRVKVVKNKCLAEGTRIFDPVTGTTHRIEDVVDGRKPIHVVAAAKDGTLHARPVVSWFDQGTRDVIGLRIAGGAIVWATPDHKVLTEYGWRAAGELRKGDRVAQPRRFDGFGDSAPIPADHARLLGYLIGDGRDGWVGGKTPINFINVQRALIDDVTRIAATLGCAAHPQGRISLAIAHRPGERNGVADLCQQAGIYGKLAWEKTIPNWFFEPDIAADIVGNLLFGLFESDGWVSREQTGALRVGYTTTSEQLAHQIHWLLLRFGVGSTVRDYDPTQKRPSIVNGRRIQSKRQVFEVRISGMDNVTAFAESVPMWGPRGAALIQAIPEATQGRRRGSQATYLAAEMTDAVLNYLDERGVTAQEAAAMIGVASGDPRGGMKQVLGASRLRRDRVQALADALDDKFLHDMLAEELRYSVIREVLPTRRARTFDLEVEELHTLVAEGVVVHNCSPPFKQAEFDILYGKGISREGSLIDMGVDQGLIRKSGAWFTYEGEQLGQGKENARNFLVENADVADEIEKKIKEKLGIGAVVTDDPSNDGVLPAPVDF
Nature of the assay: Fluorescence Cell-Free Homogeneous Dose Retest to Identify Inhibitors of RecA-Intein Splicing Activity. [Related pubchem assays (depositor defined):AID2097, AID2223, AID489010, AID492950]. The format is functional.

The test system of assay [12] is A-375. Nature of the assay: MITF: Counter assay: A375 proliferation Measured in Cell-Based System Using Plate Reader - 2084-03_Inhibitor_Dose_DryPowder_Activity. [Related pubchem assays (depositor defined):AID488944]. As to conditions: Homo sapiens. Format: functional.
Assay [13] concerns the target T6, Ubiquitin-conjugating enzyme E2 N (Homo sapiens, UniProt P61088).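 Further: Dose-response confirmation in a TR-FRET assay detecting UBC13-driven polyubiquitin chain formation, inhibition measured.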
T6 sequence (P61088 whole entry): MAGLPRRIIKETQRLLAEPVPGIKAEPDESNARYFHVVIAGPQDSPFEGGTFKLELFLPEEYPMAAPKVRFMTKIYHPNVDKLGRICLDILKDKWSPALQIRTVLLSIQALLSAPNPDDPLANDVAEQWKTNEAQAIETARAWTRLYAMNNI
Format: functional.

Assay [14] concerns the target T7, DNA repair protein RAD52 homolog (Homo sapiens, UniProt P43351).
T7 sequence (P43351 whole entry): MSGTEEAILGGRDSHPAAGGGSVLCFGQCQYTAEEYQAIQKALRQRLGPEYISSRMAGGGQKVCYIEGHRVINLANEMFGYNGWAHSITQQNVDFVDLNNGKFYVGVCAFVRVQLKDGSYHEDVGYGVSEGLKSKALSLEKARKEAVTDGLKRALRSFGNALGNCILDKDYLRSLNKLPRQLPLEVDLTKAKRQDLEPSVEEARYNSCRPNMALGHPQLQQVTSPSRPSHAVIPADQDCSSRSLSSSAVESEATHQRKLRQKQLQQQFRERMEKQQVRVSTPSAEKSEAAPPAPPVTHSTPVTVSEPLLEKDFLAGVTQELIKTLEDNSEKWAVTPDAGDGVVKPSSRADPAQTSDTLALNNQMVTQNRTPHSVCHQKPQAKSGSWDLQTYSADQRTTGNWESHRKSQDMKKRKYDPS
The format is functional, biochemical.

The target of assay [15] is Photoreceptor-specific nuclear receptor (Homo sapiens, UniProt Q9Y5X4). Format: functional, cell-based.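 Further: CHO-S cells with Gal4-NCOR and VP16-NR2E3 two-hybrid luciferase reporter.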
Chain of Photoreceptor-specific nuclear receptor (Q9Y5X4 whole entry, the tested form may be a part): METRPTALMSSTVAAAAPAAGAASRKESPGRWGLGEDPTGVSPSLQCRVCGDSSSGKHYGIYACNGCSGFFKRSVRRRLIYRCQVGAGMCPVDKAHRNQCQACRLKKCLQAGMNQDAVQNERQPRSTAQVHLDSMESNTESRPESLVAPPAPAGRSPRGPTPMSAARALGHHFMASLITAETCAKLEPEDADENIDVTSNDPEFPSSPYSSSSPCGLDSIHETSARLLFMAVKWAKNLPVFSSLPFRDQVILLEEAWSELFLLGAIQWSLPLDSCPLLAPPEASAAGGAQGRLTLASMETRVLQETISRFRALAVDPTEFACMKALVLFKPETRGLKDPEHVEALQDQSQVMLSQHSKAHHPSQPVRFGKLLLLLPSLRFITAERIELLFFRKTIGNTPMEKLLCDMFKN

As to `COc1ccc(S(=O)(=O)N2CCCCCC2)cc1C(=O)N(C)Cc1ccc(C(C)(C)C)cc1`, the IC50 in [1] was 14.6 µM (active); in assay [3] it was 13.5 µM (active). For the same compound, the EC50 in assay [2] was > 53 µM (inactive).
The corresponding values for `O=C(COc1cc(Cl)ccc1Cl)N1CCNC1=O` are 27.4 µM (active), 8.63 µM (active) and > 53 µM (inactive).
`COC(=O)c1cc(NC(=O)Cc2cccs2)cc(C(=O)OC)c1`: in assay [4], the IC50 was 3.84 µM (active).
On to `O=C(CNC(=O)c1cccc(OC(F)F)c1)OCc1cc(=O)n2cc(Br)ccc2n1`, for which, in assay [4], the IC50 was 7.09 µM (active).
As to `Fc1ccccc1CSc1nnnn1-c1ccc2c(c1)OCO2`, the IC50 in assay [1] is 15.6 µM (active); in [3], > 20 µM (inactive). Also, the EC50 in assay [2] was > 53 µM (inactive).
As for `CN(C(=O)Oc1ccc(C(=O)c2ccc(Cl)cc2)cc1)c1ccccc1`, the IC50 in assay [1] is < 0.368 µM (active); in [3] it was > 20 µM (inactive). In assay [2], the EC50 was > 53 µM (inactive).
In the same order, the values of `CCOc1ccc(-n2c(SCC(=O)NCc3ccco3)nc3c4ccccc4nc-3c2O)cc1` are 3.76 µM (active), 15 µM (active) and > 53 µM (inactive).
Consider `COc1ccc(N(Cc2cc(O)nc3ccccc23)C(=O)CCl)cc1`, for which the EC50 is 1.95 µM (active) in assay [5]; 5.45 µM (inconclusive) in [6]; 4.68 µM (active) in assay [7]; 4.96 µM (inconclusive) in assay [8]; 1.59 µM (active) in assay [11]. For the same compound, the values for the AC50 in assay [9], in assay [10] and in assay [12] were 10.9 µM (active), 10.3 µM (active) and 27.1 µM (active), respectively.
Regarding `CC[C@@H](C)[C@@H]1CN([C@@H](CN2CCC[C@H]2CN2C(N)=NC[C@H]2CC(C)C)C(C)C)C(=N)N1CCc1ccc(Cl)c(Cl)c1`, the IC50 in assay [13] was > 20 µM (inactive); in [1], 2.82 µM (active); in assay [3], 7.1 µM (active). Further, in assay [2], the EC50 was 42.3 µM (active). Moreover, the concentration at half-maximal activity (AC50) in assay [14] was 17.3 µM (active).
In the case of `COCCCNC(=S)N1CCN(c2nc(-c3ccc(Cl)cc3)cs2)CC1`, the IC50 in assay [15] was 4.25 µM (active).
For `O=C(O)C1OC1(c1ccccc1Cl)c1ccccc1Cl` (stereo unspecified), the IC50 is 23.4 µM (active) in assay [1] and > 20 µM (inactive) in assay [3]. Moreover, the EC50 in [2] is > 53 µM (inactive).
As for `COc1ccc(C)cc1NC(=O)NC1CC(=O)N(c2ccc3c(c2)OCCO3)C1` (stereo unspecified), the IC50 in assay [15] was 3.25 µM (active).
With `CCOC(=O)c1cc2c(=O)n3cccc(C)c3nc2n(Cc2ccco2)/c1=N/C(=O)c1cccnc1`, the IC50 in [4] is 18.8 µM (active).

The values are drawn from ChEMBL document CHEMBL1201862, “PubChem BioAssay data set” (2004).
